What all share (format): in vivo
In experiment [1] the test system is Lolium perenne, perennial ryegrass (LOLPE). Kind of experiment: Biological Example 3 glasshouse screen, post-emergence herbicidal activity. To be noted: 360 h, 15 DAA, no safener, read-out: LOLPE percentage phytotoxicity; for pest or weed control at 30 g/ha: application rate 30 g/ha; for pest or weed control at 60 g/ha: application rate 60 g/ha. The method in brief:
(§1)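 Plants grown 12 days under glass (24/18°C. or 20/16°C. day/night, 16 h light, 65% humidity) were sprayed post-emergence with compound in acetone plus IF50, with 0.2% v/v X-77 adjuvant added. Percentage phytotoxicity was scored visually at 15 DAA (0% = no damage, 100% = total damage). No safener was used.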

Experiment [2] relates to Alopecurus myosuroides, blackgrass (ALOMY). Described as above. To be noted: 360 h, 15 DAA, no safener, read-out: ALOMY percentage phytotoxicity; for pest or weed control at 30 g/ha: application rate 30 g/ha; for pest or weed control at 60 g/ha: application rate 60 g/ha. The method in brief:
as §1

Experiment [3] has as its system Avena fatua, wild oats (AVEFA). The description is as above. To be noted: 360 h, 15 DAA, no safener, read-out: AVEFA percentage phytotoxicity; for pest or weed control at 30 g/ha: application rate 30 g/ha; for pest or weed control at 60 g/ha: application rate 60 g/ha. The method in brief:
as §1

Experiment [4] relates to Avena fatua (AVEFA). Kind of experiment: Biological Example 1 glasshouse screen, pre-emergence herbicidal activity. To be noted: 312 h, application rate 250 g/ha, evaluated after 13 days, read-out: AVEFA percentage phytotoxicity. The method in brief:
(§2)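 Pots in a glasshouse (24/16°C day/night, 14 h light, 65% humidity) were sprayed one day after sowing (pre-emergence) or after 8 days (post-emergence), using acetone/water (50:50) with 0.5% Tween 20. Phytotoxicity was scored visually as % damage (0-100) 13 days after application.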

The subject of another experiment is Lolium perenne (LOLPE). Described as above. To be noted: 312 h, application rate 250 g/ha, evaluated after 13 days, read-out: LOLPE percentage phytotoxicity. The method in brief: as §2
Experiment [5] deals with Echinochloa crus-galli (ECHCG). The experiment is described as above. To be noted: 312 h, application rate 250 g/ha, evaluated after 13 days, read-out: ECHCG percentage phytotoxicity. The essentials: (§3)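 Potted test species received a foliar or soil spray of active ingredient in acetone/water (50:50), 0.5% Tween 20, at 1 or 8 days after sowing for pre- and post-emergence respectively. Percentage phytotoxicity was assessed by eye after 13 days.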

The subject of experiment [6] is Alopecurus myosuroides (ALOMY). The description is as above. To be noted: 312 h, application rate 250 g/ha, evaluated after 13 days, read-out: ALOMY percentage phytotoxicity. The essentials: as §3
The next experiment concerns Setaria viridis (SETVI). Kind of experiment: Biological Example 4B (not-previously-formulated compounds) post-emergence herbicidal activity on grassy weeds. To be noted: 14 DAA, technical compound in IF50 + Adigor, mean of two. As for the experimental part:
(§4) Seeds of a variety of test species are sown in standard soil in pots. After cultivation for 14 days under controlled conditions in a glasshouse (at 22/16°C., day/night; 16 hours light; 65% humidity), the plants are sprayed with an aqueous spray solution derived from the formulation of the technical active ingredient dissolved in acetone plus IF50 containing
(§5) 10.56 wt % Emulsogen™EL (castor oil ethoxylate, CAS Registry number 61791-12-6)
(§6) 42.22 wt % N-Methyl pyrrolidone
(§7) 42.22 wt % dipropylene glycol monoethyl ether
(§8) at a 1:20 ratio of (technical active ingredient:IF50). The adjuvant Adigor™(an adjuvant containing inter alia methylated rapeseed oil, e.g. available from Syngenta) is added to form a 0.5% v/v solution. The test plants are then grown on under controlled conditions in the glasshouse (at 22/16°C., day/night; 16 hours light; 65% humidity) and are watered twice daily. After 14 days the test is evaluated (100%=total damage to plant; 0%=no damage to plant).
(§9) […] Herbicidal activity (phytotoxicity) is evaluated visually, and an assessed percentage phytotoxicity score is given for each herbicidal application on each plant species (with 100%=total damage to plant; 0%=no damage to plant). Two repetitions are made for each experiment, and the mean herbicidal activity (phytotoxicity) data is reported.
(§10) Test plants: Avena fatua (AVEFA), Lolium multiflorum (LOLMU), Setaria viridis (SETVI), Poa annua (POAAN), Alopecurus myosuroides (ALOMY). All five of these are grassy monocotyledonous weeds.

The subject of experiment [7] is Avena fatua (AVEFA). The description is as above. To be noted: 14 DAA, technical compound in IF50 + Adigor, mean of two. As for the experimental part: as §4, §5, §6, §7, §8, §9, §10
A further experiment relates to Poa annua (POAAN). Described as above. To be noted: 14 DAA, technical compound in IF50 + Adigor, mean of two. On the procedure:
as §4, §5, §6, §7, §8, §9, §10

Experiment [8] relates to Alopecurus myosuroides (ALOMY). The experiment is described as above. To be noted: 14 DAA, technical compound in IF50 + Adigor, mean of two. As for the experimental part:
as §4, §5, §6, §7, §8, §9, §10

The mark [9] stands for this setting: 30 g/ha, cloquintocet-mexyl 50 g/ha.
Where [10] appears, read: 60 g/ha, cloquintocet-mexyl 0 g/ha.
[11] abbreviates: 60 g/ha, cloquintocet-mexyl 50 g/ha.
Setting [12] is: 15 g/ha, cloquintocet-mexyl 50 g/ha.

Consider `CC#Cc1cc(C)c(C2=C(O)CC(Cc3ccc(C)cn3)C2=O)c(C)c1` (centres unmarked) [Compound A-8], for which the pest or weed control at 30 g/ha came out at 90% in [1], 80% in [2] and 70% in [3]. Besides, the pest or weed control at 250 g/ha (in the experiment on Avena fatua (AVEFA) [4]; with Lolium perenne (LOLPE); in [5]; in [6]) was 100% throughout. Besides, the SETVI % phytotoxicity worked out at 55% with Setaria viridis (SETVI) (setting [9]), 75% in the experiment on Setaria viridis (SETVI) (setting [10]) and 75% in the experiment on Setaria viridis (SETVI) (setting [11]). For the same compound, the AVEFA % phytotoxicity worked out at 45% in the experiment with Avena fatua (AVEFA) [7] (setting [9]), 97% with Avena fatua (AVEFA) [7] (setting [10]) and 95% in the experiment on Avena fatua (AVEFA) [7] (setting [11]). Further, the POAAN % phytotoxicity in the experiment with Poa annua (POAAN) (setting [9]) is given as 65%; in the experiment on Poa annua (POAAN) (setting [10]), 80%; with Poa annua (POAAN) (setting [11]), 75%. Further, the results for the ALOMY % phytotoxicity in [8] (setting [9]), in [8] (setting [10]) and in [8] (setting [11]) were 63%, 94% and 94%, respectively.

`CC#Cc1cc(C)c(C2=C(O)CC(Cc3ccc(F)cn3)C2=O)c(C)c1` (centres unmarked) [Compound A-11]: the pest or weed control at 30 g/ha in experiment [1] was 80%; in experiment [2], 90%; in experiment [3], 70%. The pest or weed control at 60 g/ha in experiment [1], in [2] and in experiment [3] was 100% in each case. Moreover, the pest or weed control at 250 g/ha in the experiment on Avena fatua (AVEFA) [4] worked out at 70%; in the experiment with Lolium perenne (LOLPE), 100%; in experiment [5], 100%; in experiment [6], 90%. For the same compound, the SETVI % phytotoxicity in the experiment on Setaria viridis (SETVI) (setting [9]) worked out at 89%; with Setaria viridis (SETVI) (setting [10]), 98%; in the experiment on Setaria viridis (SETVI) (setting [11]), 97%. Moreover, the results for the AVEFA % phytotoxicity with Avena fatua (AVEFA) [7] (setting [9]), in the experiment with Avena fatua (AVEFA) [7] (setting [10]) and in the experiment with Avena fatua (AVEFA) [7] (setting [11]) were 50%, 93% and 88%, respectively. The POAAN % phytotoxicity is on record as 70% in the experiment with Poa annua (POAAN) (setting [9]), 75% with Poa annua (POAAN) (setting [10]) and 75% in the experiment on Poa annua (POAAN) (setting [11]). Moreover, the figures for the ALOMY % phytotoxicity in [8] (setting [9]), in experiment [8] (setting [10]) and in experiment [8] (setting [11]) were 73%, 85% and 85%, respectively.

As for `CC#Cc1cc(C)c(C2=C(O)CC(Cc3ccc(C#N)cn3)C2=O)c(C)c1` (centres unmarked) [Compound A-14], the pest or weed control at 30 g/ha in experiment [1] was 70%; in experiment [2], 70%; in experiment [3], 0%. Further, the values for the pest or weed control at 60 g/ha in experiment [1], in experiment [2] and in experiment [3] were 80%, 90% and 60%, respectively. The pest or weed control at 250 g/ha with Avena fatua (AVEFA) [4] came out at 50%; in the experiment with Lolium perenne (LOLPE), 90%; in experiment [5], 90%; in experiment [6], 90%. Moreover, the SETVI % phytotoxicity with Setaria viridis (SETVI) (setting [9]) was 99%; in the experiment on Setaria viridis (SETVI) (setting [10]) it was 100%; in the experiment with Setaria viridis (SETVI) (setting [11]), 100%. Besides, the AVEFA % phytotoxicity was determined as 38% with Avena fatua (AVEFA) [7] (setting [9]), 83% with Avena fatua (AVEFA) [7] (setting [10]) and 80% in the experiment on Avena fatua (AVEFA) [7] (setting [11]). Besides, the POAAN % phytotoxicity in the experiment with Poa annua (POAAN) (setting [9]) is 83%; in the experiment on Poa annua (POAAN) (setting [10]) it was 85%; in the experiment with Poa annua (POAAN) (setting [11]) it was 85%. The ALOMY % phytotoxicity in experiment [8] (setting [9]) turned out to be 78%; in experiment [8] (setting [10]), 97%; in [8] (setting [11]), 97%.

Take `CC#Cc1cc(C)c(C2C(=O)CC(Cc3ccn(C)n3)C2=O)c(C)c1` (centres unmarked) [Compound A-19]: the figures for the pest or weed control at 15 g/ha in experiment [1] (application rate 15 g/ha), in [2] (application rate 15 g/ha) and in [3] (application rate 15 g/ha) were 30%, 80% and 40%, respectively. Further, the pest or weed control at 30 g/ha in experiment [1] came out at 80%; in experiment [2] it was 100%; in experiment [3], 90%. Besides, the pest or weed control at 250 g/ha (in the experiment on Avena fatua (AVEFA) [4]; in the experiment on Lolium perenne (LOLPE); in experiment [5]; in experiment [6]) was 100% each time. Moreover, the SETVI % phytotoxicity was determined as 99% in the experiment with Setaria viridis (SETVI) (setting [12]), 100% with Setaria viridis (SETVI) (setting [9]), 100% in the experiment on Setaria viridis (SETVI) (setting [10]) and 100% with Setaria viridis (SETVI) (setting [11]). For the same compound, the AVEFA % phytotoxicity is given as 88% in the experiment with Avena fatua (AVEFA) [7] (setting [12]), 90% with Avena fatua (AVEFA) [7] (setting [9]), 99% with Avena fatua (AVEFA) [7] (setting [10]) and 99% with Avena fatua (AVEFA) [7] (setting [11]). Also, the POAAN % phytotoxicity in the experiment with Poa annua (POAAN) (setting [12]) is listed as 75%; in the experiment with Poa annua (POAAN) (setting [9]), 80%; in the experiment on Poa annua (POAAN) (setting [10]), 92%; with Poa annua (POAAN) (setting [11]), 92%. Further, the ALOMY % phytotoxicity is recorded as 99% in experiment [8] (setting [12]), 100% in experiment [8] (setting [9]), 100% in experiment [8] (setting [10]) and 100% in [8] (setting [11]).

The record behind these values is patent US9107415B2, “2-(substituted-phenyl)-cyclopentane-1,3-dione compounds, and derivatives thereof” (Syngenta Limited, priority 2011, dated 2015).
